Patent US20120010206A1, “IMIDAZOLOPYRIDINE COMPOUNDS USEFUL FOR THE TREATMENT OF DEGENERATIVE AND INFLAMMATORY DISEASES” (priority 2006, published 2012)

Legend:
[1] = tested on: MMP1 expression from activated SFs (RASF); test: MMP assay: MMP1 expression (ELISA) by TNF-α-triggered RASFs; type: cell-based; details: RASF triggered with TNFα, MMP1 ELISA after 48 hrs, semi-quantitative score
Procedure: A 384-well format ELISA for measurement of MMP1 is developed. Various primary antibodies are tested, as well as various ELISA protocols. The following protocol is developed and validated to measure MMP1 levels in SF supernatant in 384 well plates: white Lumitrac 600 384 well plates (Greiner) are coated with 2 μg/mL anti-MMP1 antibody MAB1346 (Chemicon). The antibody is diluted in buffer 40 (1.21 g Tris base (Sigma), 0.58 g NaCl (Calbiochem) and 5 mL 10% NaN3 (Sigma) in 1 L milliQ water and adjusted to pH 8.5). After overnight incubation at 4° C., plates are washed with PBS (80 g NaCl, 2 g KCl (Sigma), 11.5 g Na2HPO4.7H2O and 2 g KH2PO4 in 10 L milliQ; pH 7.4) and blocked with 100 μL/well Casein buffer (2% Casein (VWR International) in PBS). Next day, casein buffer is removed from ELISA plates and replaced by 50 μL/well EC buffer (4 g casein, 2.13 g Na2HPO4 (Sigma), 2 g bovine albumin (Sigma), 0.69 g NaH2PO4.H2O (Sigma), 0.5 g CHAPS (Roche), 23.3 g NaCl, 4 mL 0.5 M EDTA pH 8 (Invitrogen), 5 mL 10% NaN3 in 1 L milliQ and adjusted to pH 7.0). 0.25 mM DTT (Sigma) is added to the thawed sample plates. After removal of the EC buffer, 20 μL of sample is transferred to the ELISA plates. After overnight incubation at 4° C. plates are washed twice with PBS and once with PBST (PBS with 0.05% Tween-20 (Sigma)) and incubated with 35 μL/well biotinylated anti-MMP1 antibody solution (R&D). This secondary antibody is diluted in buffer C (0.82 g NaH2PO4.H2O, 4.82 g Na2HPO4, 46.6 g NaCl, 20 g bovine albumin and 4 ml, 0.5M EDTA pH 8 in 2 L milliQ and adjusted to pH 7.0) at a concentration of 5 μg/mL. After 2 h of incubation at RT, plates are washed as described above and incubated with 50 μL/well streptavidin-HRP conjugate (Biosource). Streptavidin-HRP conjugate is diluted in buffer C at a concentration of 0.25 μg/mL. After 45 min, plates are washed as described above and incubated for 5 min with 50 μL/well BM Chem ELISA Substrate (Roche). Readout is performed on the Luminoscan Ascent Luminometer (Labsystems) with an integration time of 200 msec or with an Envision reader (Perkin Elmer).
SFs were acquired at passage 1 from a commercial supplier (Cell applications, Inc.). SFs are cultured in DMEM supplemented with 10% heat-inactivated FBS, 1× penicillin/streptomycin (Invitrogen) at 37° C., 10% CO2 until passage 6. Aliquots of the cells are frozen and cryopreserved in liquid nitrogen. Starting from a cryopreserved aliquot, cells are further expanded by sub-culturing cells at 1/3 ratio every week. Cells between passage 10 and 12 are routinely used in compound testing according to the following protocol.
Starting from the compound master stocks (all at 10 mM concentration in 100% DMSO) a 3-fold serial dilution is made in 96-well plates in 100% DMSO. Then, plates are further diluted 45-fold in M199 medium supplemented with 1% heat-inactivated FBS to obtain a intermediate work stock.
At day 1, RASFs are seeded in 96 well plates (flat bottom, tissue culture treated, Greiner) at a density of 3000 cells/well in complete synovial growth medium (Cell Applications). Day 5, the medium is completely removed from the cells, and replaced by 81 μL of M199 medium supplemented with 1% heat-inactivated FBS followed by addition of 10 μL compound out of the intermediate work stock. After an incubation period of 90 minutes, which allows the compounds to equilibrate and enter the cells, cells are stimulated with either TNF-α or ‘complex trigger’. TNF-α trigger is added in a volume of […] to obtain final concentration of 10 ng/mL. For that, TNF-α stock (PeproTech) at 10 μg/mL was diluted to 100 ng/mL TNF-α in M199 medium supplemented with 1% FBS. ‘Complex trigger’ mix is added in a volume of 20 μL to obtain a final concentration of 12.5%. For that, ‘complex trigger’ mix, is diluted to 80% with M199 medium supplemented with 1% FBS. […]

TAK1-TAB1 fusion protein = biological target: T1, TAK1-TAB1 fusion protein (Homo sapiens, UniProt O43318); test: In vitro TAK1 kinase assay (33P-ATP, casein substrate); type: biochemical; details: semi-quantitative score, at least two independent experiments
T1 construct: purchased Upstate 14-600
T1 sequence (O43318 with tags, fused parts or gaps limits assumed): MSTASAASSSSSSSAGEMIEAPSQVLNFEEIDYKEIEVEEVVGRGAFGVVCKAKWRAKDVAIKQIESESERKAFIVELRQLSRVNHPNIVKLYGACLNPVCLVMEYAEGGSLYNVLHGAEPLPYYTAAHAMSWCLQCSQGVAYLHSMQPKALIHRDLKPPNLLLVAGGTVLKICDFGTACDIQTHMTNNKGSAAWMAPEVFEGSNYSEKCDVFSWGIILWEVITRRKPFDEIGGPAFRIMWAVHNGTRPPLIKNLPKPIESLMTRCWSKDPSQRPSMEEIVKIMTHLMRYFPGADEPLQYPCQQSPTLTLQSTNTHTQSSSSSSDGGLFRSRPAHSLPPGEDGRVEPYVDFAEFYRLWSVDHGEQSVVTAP
Summary of the method: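 Radiometric assay with active TAK1-TAB1 fusion protein (0.5 mU), 0.1 mg/mL casein, ATP at 5 µM plus [33P]-γ-ATP, in 10 mM MOPS pH 7.0, 1 mM EDTA. Reactions ran 90 min at 30 °C, were stopped with phosphoric acid and filter-counted; percent inhibition from ≥2 experiments gave semi-quantitative potency scores.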

SMILES	EC50 [1] [nM]	IC50 (TAK1-TAB1 fusion protein) [nM]
CC(C)N1CCC(c2ccc(Nc3ccc(-c4ccc5c(c4)CNC5=O)n4ccnc34)cc2)CC1 [Compound 19, 5-(8-(4-(1-isopropyl-piperidin-4-yl)phenylamino)imidazo[1,2-a]pyridin-5-yl)isoindolin-1-one]	101 to 1000	< 100
CNS(=O)(=O)c1ccc(Nc2ccc(-c3ccc4c(c3)CNC4=O)n3ccnc23)cc1 [Compound 24, N-methyl-4-(5-(1-oxoisoindolin-5-yl)imidazo[1,2-a]pyridin-8-ylamino)benzene sulfonamide]	1000 to 3000	101 to 1000
c1cn2c(-c3cn[nH]c3)ccc(Nc3ccc(N4CCOCC4)cc3)c2n1 [Compound 2, (4-Morpholin-4-yl-phenyl)-[5-(1H-pyrazol-4-yl)-imidazo[1,2-a]pyridin-8-yl]-amine]	101 to 1000	101 to 1000
CC(C)N1CCN(c2ccc(Nc3ccc(-c4ccc5c(c4)CNC5=O)n4ccnc34)cc2C(F)(F)F)CC1 [Compound 27, 5-(8-(4-(4-isopropylpiperazin-1-yl)-3-(trifluoromethyl)phenylamino)imi-dazo[1,2-a]pyridin-5-yl)isoindolin-1-one]	> 3000	101 to 1000
CN(C)S(=O)(=O)c1ccc(Nc2ccc(-c3ccc4c(c3)CNC4=O)n3ccnc23)cc1 [Compound 20, N,N-dimethyl-4-(5-(1-oxoisoindolin-5-yl)imidazo[1,2-a]pyridin-8-ylamino)benzene sulfonamide]	101 to 1000	101 to 1000
CN(C)C(=O)c1ccc(Nc2ccc(-c3ccc4c(c3)CNC4=O)n3ccnc23)cc1 [Compound 14, N,N-dimethyl-4-(5-(1-oxoisoindolin-5-yl)imidazo[1,2-a]pyridin-8-ylamino)benzamide]	> 3000	101 to 1000
NC(=O)c1ccc(-c2ccc(Nc3ccc(N4CCOCC4)cc3)c3nccn23)cc1 [Compound 1, 4-[8-(4-Morpholin-4-yl-phenylamino)-imidazo[1,2-a]pyridin-5-yl]-benzamide]	101 to 1000	1000 to 3000
CS(=O)(=O)c1ccc(Nc2ccc(-c3ccc4c(c3)CNC4=O)n3ccnc23)cc1 [Compound 18, 5-(8-(4-(methylsulfonyl)phenylamino)imi-dazo[1,2-a]pyridin-5-yl)isoindolin-1-one]	> 3000	101 to 1000
CN(C)c1ccc(CNS(=O)(=O)c2ccc(Nc3ccc(-c4ccc5c(c4)CNC5=O)n4ccnc34)cc2)cc1 [Compound 25, N-(4-(dimethylamino)benzyl)-4-(5-(1-oxoisoindolin-5-yl)imidazo[1,2-a]pyridin-8-ylamino)benzene sulfonamide]	1000 to 3000	101 to 1000
CN1CCN(c2ccc(Nc3ccc(-c4cn[nH]c4)n4ccnc34)cc2)CC1 [Compound 4, [4-(4-Methyl-piperazin-1-yl)-phenyl]-[5-(1H-pyrazol-4-yl)-imidazo[1,2-a]pyridin-8-yl]-amine]	> 3000	101 to 1000
O=C1NCc2cc(-c3ccc(Nc4ccc(N5CCOCC5)cc4)c4nccn34)ccc21 [Compound 13, 5-(8-(4-morpholinophenyl-amino)imidazo [1,2-a]pyridin-5-yl)isoindolin-1-one]	1000 to 3000	101 to 1000

The remaining lines, values ahead:

EC50 [1] [nM]	IC50 (TAK1-TAB1 fusion protein) [nM]	SMILES
> 3000	1000 to 3000	NC(=O)c1ccc(-c2ccc(Nc3ccc(N4CCN(C5CC5)CC4)cc3)c3nccn23)cc1 [Compound 83]
101 to 1000	101 to 1000	CCN1CCN(c2ccc(Nc3ccc(-c4cc[nH]c(=O)c4)n4ccnc34)cc2)CC1 [Compound 91]
> 3000	101 to 1000	CCN1CCN(c2ccc(Nc3ccc(-c4ccc5c(c4)CNC5=O)n4ccnc34)cc2Cl)CC1 [Compound 28, 5-(8-(3-chloro-4-(4-ethylpiperazin-1-yl)phenylamino)imidazo[1,2-a]pyridin-5-yl)isoindolin-1-one]
1000 to 3000	101 to 1000	CC(C)N1CCC(c2ccc(Nc3ccc(-c4cc[nH]c(=O)c4)n4ccnc34)cc2)CC1 [Compound 96]
> 3000	101 to 1000	O=C(NCCN1CCOCC1)c1ccc(Nc2ccc(-c3ccc4c(c3)CNC4=O)n3ccnc23)cc1 [Compound 43, N-(2-morpholinoethyl)-4-(5-(1-oxoisoindolin-5-yl)imidazo[1,2-a]pyridin-8-ylamino)benzamide]
> 3000	101 to 1000	CNC(=O)C1CCN(C(=O)c2ccc(Nc3ccc(-c4ccc5c(c4)CNC5=O)n4ccnc34)cc2)CC1 [Compound 41, N-methyl-1-(4-(5-(1-oxoisoindolin-5-yl)imidazo[1,2-a]pyridin-8-ylamino)benzoyl) piperidine-4-carboxamide]
> 3000	> 3000	CC(C)N1CCN(c2ccc(Nc3ccc(-c4cccc(O)c4)n4ccnc34)cc2)CC1 [Compound 94]
1000 to 3000	101 to 1000	CCN1CCN(c2ccc(Nc3ccc(-c4ccc(C(N)=O)cc4)n4ccnc34)cc2)CC1 [Compound 81]
> 3000	101 to 1000	CC(C)N1CCN(c2ccc(Nc3ccc(-c4ccc5c(c4)CNC5=O)n4ccnc34)cc2Cl)CC1 [Compound 29, 5-(8-(3-chloro-4-(4-isopropyl-piperazin-1-yl)phenylamino)imidazo[1,2-a]pyridin-5-yl)isoindolin-1-one]
> 3000	< 100	CC(C)N1CCN(c2ccc(Nc3ccc(-c4ccc5c(c4)CNC5=O)n4ccnc34)cc2F)CC1 [Compound 26, 5-(8-(3-fluoro-4-(4-isopropyl-piperazin-1-yl)phenylamino)imidazo[1,2-a]pyridin-5-yl)isoindolin-1-one]
1000 to 3000	101 to 1000	O=c1cc(-c2ccc(Nc3ccc(C4CCN(CCF)CC4)cc3)c3nccn23)cc[nH]1 [Compound 108, 4-(8-{4-[1-(2-Fluoro-ethyl)-piperidin-4-yl]-phenylamino}-imidazo[1,2-a]pyridin-5-yl)-1H-pyridin-2-one]
101 to 1000	> 3000	CC(C)N1CCN(c2ccc(Nc3ccc(-c4cc[nH]c(=O)c4)n4ccnc34)cc2C(F)(F)F)CC1 [Compound 106, 4-{8-[4-(4-Isopropyl-piperazin-1-yl)-3-trifluoromethyl-phenylamino]-imidazo[1,2-a]pyridin-5-yl}-1H-pyridin-2-one]
